Measurements taken from patent US20140205631A1, “Stimulation of vaccination by angiotensin peptides” (University of Southern California, priority 2013, published 2014).

Legend:
FIV-p24 antigen [1] = experiment: Oral secretion SIgA antibody titers (ELISA) after vaccination of cats; type: in vivo, feline immunodeficiency virus (FIV)
Protocol: (§1) Animals: Eleven (11) female outbred cats>24 weeks old that were free of FIV, feline leukemia virus (FeLV) and feline infectious peritonitis virus were employed. The animals were restrained for the application of test articles to mucous membranes and collection of blood and mucosal secretions. Sedation, if necessary, was induced by subcutaneous administration of ketamine hydrochloride (22 mg/kg) and acepromazine maleate (0.1 mg/kg). Euthanasia was accomplished with a lethal overdose of barbiturates. All activities were approved by the Institutional Animal Care and Use Committee and supervised by veterinary staff.
(§2) Vaccine Preparation: Fel-O-Vax FIV (Fort Dodge Animal Health, Fort Dodge, Iowa) and A(1-7) was combined in a constant volume of 2% hydroxyethyl cellulose (2% HEC). The range of concentrations of A(1-7) ranged from 0 to 10 mg/mL with a constant 0.33 mL of Fel-O-Vax FIV suspended in each mL of the gel applied for vaccination purposes. Two control animals received intramuscular Fel-O-Vax FIV at baseline, week 3 and week 5. One control animal had mucosal vaccination with Fel-O-Vax alone suspended in the 2% HEC without A(1-7) and one control animal received intramuscular Fel-O-Vax FIV with 0.3 mg/kg of A(1-7) at baseline, week 3 and week 5.
(§3) Delivery of angiotensin(1-7) and FIV vaccine to mucosal surfaces: 2% HEC, a viscous gel, was used as the vehicle for the topical delivery of angiotensin(1-7) and FIV vaccine. The topical vaccine was applied to the mucosal surface weekly for 6 consecutive weeks. 1.0 mL was applied to the muzzle for oral mucosal vaccination and 1.0 mL and 0.2 mL was instilled in the rectal and vaginal vaults, respectively for mucosal vaccination at these sites.
Measurement of Local Immune Response: The Weck-Cel Surgical Spear (Windsor Biomedical, Newton, N.H.) was used to obtain secretions. Once inserted, the sponge is allowed to remain in place for 5 minutes. The secretions were extracted by centrifugation with 300 μL of a buffer solution. The buffer solution is prepared by mixing 50 μL of 100× protease inhibitor cocktail and 250 μL of 10% Igepal (Sigma, St Louis, Mo., U.S.A.) with 4.7 ml of phosphate-buffered saline (PBS) containing 0.25% bovine serum albumin (BSA, Fraction V; Sigma). The 100× protease inhibitor cocktail contains 100 μg/mL aprotinin, 500 μg/mL leupeptin, 100 μg/mL bestatin (all Sigma), and 50 μg/mL 4-(2-Aminoethyl)-benzenesulfonyl fluoride hydrochloride (Roche Applied Sciences, U.S.A.) in phosphate buffered saline.
(§4) The local immune response in mucosal secretions was evaluated against the homologous FIV-p24 antigen (Cell Biolabs, Inc, San Diego, Calif.) or the heterologous HIV-gp120 antigen (ImmunoDiagnostics, Inc, Woburn, Mass.). Plates were prepared with 50 ng/mL FIV-p24 antigen or with 500 ng/mL HIV-gp120 antigen (Bachem Americans, Inc, Torrance, Calif.) incubated over night at 4° C., washed and the target sample added and incubated overnight again at 4° C. The plates were washed and the indicator goat anti-feline IgG (Accurate Chemical & Scientific Corp., Westbury, N.Y., working titer 1:10,000) or goat anti-feline IgA (Accurate Chemical & Scientific Corp., Westbury, N.Y., working titer 1:1,000) added and incubated for 24 hours at 4° C. Following a final wash, substrate solution was added. The stop solution was added after 15 minutes for the IgG reaction and after 30 minutes for the IgA reaction. Plates were read at 450 nm.

FIV-p24 antigen [2] = experiment: Serum IgG antibody titers (ELISA) after vaccination of cats; type: in vivo, feline immunodeficiency virus (FIV); conditions: for Serum IgG anti-FIVp24 antigen Titers: lowest dilution 1:20
Protocol: as §1, §2, §3, §4

## Asp-Arg-Val-Tyr-Ile-His-Pro (DRVYIHP) [A(1-7)]
FIV-p24 antigen [1]; topical Fel-O-Vax FIV + 0.3 A(1-7) in 2% HEC, Week 2, lowest dilution Undilute
  SIgA Anti-FIV-p24: Negative
FIV-p24 antigen [1]; topical Fel-O-Vax FIV + 0.3 A(1-7) in 2% HEC, Week 4, lowest dilution Undilute
  SIgA Anti-FIV-p24: Negative
FIV-p24 antigen [1]; topical Fel-O-Vax FIV + 0.3 A(1-7) in 2% HEC, Week 6, lowest dilution Undilute
  SIgA Anti-FIV-p24: Negative
FIV-p24 antigen [1]; topical Fel-O-Vax FIV + 0.3 A(1-7) in 2% HEC, Week 8, lowest dilution Undilute
  SIgA Anti-FIV-p24: Negative
FIV-p24 antigen [1]; topical Fel-O-Vax FIV + 0.4 A(1-7) in 2% HEC, Week 4, lowest dilution Undilute
  SIgA Anti-FIV-p24: Undilute
FIV-p24 antigen [1]; topical Fel-O-Vax FIV + 0.4 A(1-7) in 2% HEC, Week 6, lowest dilution Undilute
  SIgA Anti-FIV-p24: Negative
FIV-p24 antigen [1]; topical Fel-O-Vax FIV + 5.0 A(1-7) in 2% HEC, Week 2, lowest dilution Undilute
  SIgA Anti-FIV-p24: Undilute
FIV-p24 antigen [1]; topical Fel-O-Vax FIV + 7.5 A(1-7) in 2% HEC, Week 4, lowest dilution Undilute
  SIgA Anti-FIV-p24: Negative
FIV-p24 antigen [1]; topical Fel-O-Vax FIV + 10.0 A(1-7) in 2% HEC, Week 2, lowest dilution Undilute
  SIgA Anti-FIV-p24: Negative
FIV-p24 antigen [1]; topical Fel-O-Vax FIV + 10.0 A(1-7) in 2% HEC, Week 4, lowest dilution Undilute
  SIgA Anti-FIV-p24: Negative
FIV-p24 antigen [1]; topical Fel-O-Vax FIV + 10.0 A(1-7) in 2% HEC, Week 6, lowest dilution Undilute
  SIgA Anti-FIV-p24: Negative
FIV-p24 antigen [1]; topical Fel-O-Vax FIV + 10.0 A(1-7) in 2% HEC, Week 8, lowest dilution Undilute
  SIgA Anti-FIV-p24: Negative
FIV-p24 antigen [2]; topical Fel-O-Vax FIV + 0.1 A(1-7) in 2% HEC, Week 4
  Serum IgG anti-FIVp24 antigen Titers: Negative
FIV-p24 antigen [2]; topical Fel-O-Vax FIV + 0.1 A(1-7) in 2% HEC, Week 8
  Serum IgG anti-FIVp24 antigen Titers: Negative
FIV-p24 antigen [2]; topical Fel-O-Vax FIV + 0.2 A(1-7) in 2% HEC, Week 4
  Serum IgG anti-FIVp24 antigen Titers: Negative
FIV-p24 antigen [2]; topical Fel-O-Vax FIV + 0.4 A(1-7) in 2% HEC, Week 4
  Serum IgG anti-FIVp24 antigen Titers: Negative
FIV-p24 antigen [2]; topical Fel-O-Vax FIV + 0.4 A(1-7) in 2% HEC, Week 8
  Serum IgG anti-FIVp24 antigen Titers: Negative
FIV-p24 antigen [2]; topical Fel-O-Vax FIV + 5.0 A(1-7) in 2% HEC, Week 2
  Serum IgG anti-FIVp24 antigen Titers: Negative
FIV-p24 antigen [2]; topical Fel-O-Vax FIV + 5.0 A(1-7) in 2% HEC, Week 4
  Serum IgG anti-FIVp24 antigen Titers: Negative
FIV-p24 antigen [2]; topical Fel-O-Vax FIV + 5.0 A(1-7) in 2% HEC, Week 6
  Serum IgG anti-FIVp24 antigen Titers: Negative
FIV-p24 antigen [2]; topical Fel-O-Vax FIV + 5.0 A(1-7) in 2% HEC, Week 8
  Serum IgG anti-FIVp24 antigen Titers: Negative
FIV-p24 antigen [2]; topical Fel-O-Vax FIV + 7.5 A(1-7) in 2% HEC, Week 2
  Serum IgG anti-FIVp24 antigen Titers: Negative
FIV-p24 antigen [2]; topical Fel-O-Vax FIV + 7.5 A(1-7) in 2% HEC, Week 4
  Serum IgG anti-FIVp24 antigen Titers: Negative
FIV-p24 antigen [2]; topical Fel-O-Vax FIV + 7.5 A(1-7) in 2% HEC, Week 6
  Serum IgG anti-FIVp24 antigen Titers: Negative
FIV-p24 antigen [2]; topical Fel-O-Vax FIV + 7.5 A(1-7) in 2% HEC, Week 8
  Serum IgG anti-FIVp24 antigen Titers: Negative
FIV-p24 antigen [2]; topical Fel-O-Vax FIV + 10.0 A(1-7) in 2% HEC, Week 2
  Serum IgG anti-FIVp24 antigen Titers: Negative
FIV-p24 antigen [2]; topical Fel-O-Vax FIV + 10.0 A(1-7) in 2% HEC, Week 4
  Serum IgG anti-FIVp24 antigen Titers: Negative
FIV-p24 antigen [2]; topical Fel-O-Vax FIV + 10.0 A(1-7) in 2% HEC, Week 6
  Serum IgG anti-FIVp24 antigen Titers: Negative
FIV-p24 antigen [2]; topical Fel-O-Vax FIV + 10.0 A(1-7) in 2% HEC, Week 8
  Serum IgG anti-FIVp24 antigen Titers: Negative
FIV-p24 antigen [2]; topical vaccination, increasing dose levels of A(1-7)
  dose response effect on serum IgG antibody titers to FIVp24 antigen: no discernible dose response effect
